The values that follow come from patent publication US7256198B2, “Pyrimidoindolones and methods for using same” (Wyeth, priority 2004, dated 2007).

In the first test the target is T1, recombinant caspase 3 (Homo sapiens, UniProt P42574).
T1 construct: His tag (C); made in house; host or cells: E. coli
T1 sequence (P42574 29-175 limits assumed): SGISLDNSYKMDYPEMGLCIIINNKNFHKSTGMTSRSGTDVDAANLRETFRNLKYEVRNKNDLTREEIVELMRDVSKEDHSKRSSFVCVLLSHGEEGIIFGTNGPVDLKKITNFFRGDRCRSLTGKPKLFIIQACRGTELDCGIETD
T1 sequence (P42574 176-277 limits assumed): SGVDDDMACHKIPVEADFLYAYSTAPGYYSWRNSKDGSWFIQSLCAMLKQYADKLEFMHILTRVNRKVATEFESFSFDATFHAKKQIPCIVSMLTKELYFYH
As to the kind of experiment: Caspase 3 Inhibition Assay (Ac-DEVD-AFC fluorogenic substrate cleavage). The format is biochemical. The settings on record: @ 50 μM compound; recombinant caspase 3, Ac-DEVD-AFC 25 μM, pH 7.2, 23° C.; read-out: percent inhibition at the highest compound concentration. As for the experimental part: Caspase 3 was expressed intracellularly in E. coli with a c-terminal His tag. Fermentation was performed at 25° C. in a B. Braun Biotech Biostat C 10 liter bioreactor vessel. The culture was collected in IL bottles and centrifuged in Komspin KA-7.1000 rotors at approximately 8000 RCF (Relative Centrifugal Force). The cell pellets were re-suspended in 20 mM Tris pH 8.0, 500 mM NaCl, and 5 mM imidazole. The cell suspension was disrupted by passing 5 times through a microfluidizer Model 110Y (Microfluidics Corp, Newton, Mass). After centrifugation (13 kg, 30 min at 4 C), the supernatant was applied to a column of Nickle-NTA agarose. The Caspase 3 was eluted with a gradient of 5 mM to 150 mM imidazole in the above buffer. Fractions containing Caspase 3 were pooled and concentrated with a Millipore Ultrafree filtration device. The concentrated Caspase 3 solution was loaded unto a TSK gel G3000sw column (Tosoh Bioseph LLC), equilibrated with a buffer of 20 mM PIPES pH 7.2, 100 mM NaCl, 1 mM EDTA & 5 mM Cysteine. Fractions containing Caspase 3 were pooled and concentrated. Sometimes CHAPS was added to 0.1% and sucrose to 10% into the protein sample.
Caspase 3 was assayed at 23° C. (room temp) in 96-well plates using the internally quenched tetrapeptide substrate N-acetyl-aspartyl-glutamyl-valyl-aspartate-7-amino-4-trifluoromethyl coumarin (Ac-DEVD-AFC purchased from Biomol). The assays are conducted at pH 7.2 in a buffered system containing 20 mM PIPES, 100 mM NaCl, 1 mM EDTA, 0.1% CHAPS, 10% sucrose and 5 mM L-cysteine. […] A steady state rate of substrate cleavage is obtained for analysis.
The progress curves generated were fitted by computer to equation 1 to generate an IC50 value. Equation 1: y=Bmax*(1−(x^n/(K^n+x^n))), where Bmax is rate in the absence of inhibitor.
Consider `CC1(C)CN=C2C(=O)c3cc(C(=O)N4CCc5ccccc54)ccc3N2C1` [Example 80, 8-(2,3-Dihydro-1H-indol-1-ylcarbonyl)-3,3-dimethyl-3,4-dihydropyrimido[1,2-a]indol-10(2H)-one], for which the inhibition at 50 µM is 46%.
The same measure, in the same setting: as for `Cc1ccc2c(c1)C(=O)C1=NCCCN12` [Example 10, 8-Methyl-3,4-dihydropyrimido[1,2-a]indol-10(2H)-one], the figure is 10%; as for `CC1(C)CN=C2C(=O)c3cc(C(=O)N4CCCC4)ccc3N2C1` [Example 78, 3,3-Dimethyl-8-(pyrrolidin-1-ylcarbonyl)-3,4-dihydropyrimido[1,2-a]indol-10(2H)-one], 37%; as for `CC1(C)CN=C2C(=O)c3cc(C(=O)Nc4ccccc4)ccc3N2C1` [Example 76, 3,3-Dimethyl-10-oxo-N-phenyl-2,3,4,10-tetrahydropyrimido[1,2-a]indole-8-carboxamide], 36%.
Same read-out and setting: the figure for `CN1CCN(C(=O)c2ccc3c(c2)C(=O)C2=NCC(C)(C)CN23)CC1` [Example 81, 3,3-Dimethyl-8-[(4-methylpiperazin-1-yl)carbonyl]-3,4-dihydropyrimido[1,2-a]indol-10(2H)-one] is 29%; for `CC(=O)N1CCN(C(=O)c2ccc3c(c2)C(=O)C2=NCC(C)(C)CN23)CC1` [Example 82, 8-[(4-Acetylpiperazin-1-yl)carbonyl]-3,3-dimethyl-3,4-dihydropyrimido[1,2-a]indol-10(2H)-one] it is 28%.

The test is the same for the next values; noted with them: recombinant caspase 3 0.25 nM, Ac-DEVD-AFC 25 μM, pH 7.2, 23° C.
Take `CC1(C)CN=C2C(=O)c3cc(S(=O)(=O)N4CCC[C@H]4COc4ccc(C(F)(F)F)cn4)ccc3N2C1` [Example 42, 3,3-Dimethyl-8-{[(2S)-2-({[5-(trifluoromethyl)pyridin-2-yl]oxy}methyl)pyrrolidin-1-yl]sulfonyl}-3,4-dihydropyrimido[1,2-a]indol-10(2H)-one]: the 50% inhibitory concentration (IC50) was 14 nM.
Same read-out and setting: as for `CC1(C)CN=C2C(=O)c3cc(NS(=O)(=O)c4ccc(Cl)c(Cl)c4)ccc3N2C1` [Example 53, 3,4-Dichloro-N-(3,3-dimethyl-10-oxo-2,3,4,10-tetrahydropyrimido[1,2-a]indol-8-yl)benzenesulfonamide], the figure is 233 nM.
Same read-out and setting: the figure for `CC1(C)CN=C2C(=O)c3cc(C#N)ccc3N2C1` [Example 20, 3,3-Dimethyl-10-oxo-2,3,4,10-tetrahydropyrimido[1,2-a]indole-8-carbonitrile] is 99 nM.
`O=C1C2=NCCCN2c2cc(Cl)c([N+](=O)[O-])cc21` [Example 15, 7-Chloro-8-nitro-3,4-dihydropyrimido[1,2-a]indol-10(2H)-one]: the concentration for half-maximal inhibition (IC50) came to 4590 nM.
With `Cc1ccc(OC[C@@H]2CCCN2S(=O)(=O)c2ccc3c(c2)C(=O)C2=NCC(C)(C)CN23)cc1` [Example 24, 3,3-Dimethyl-8-({(2S)-2-[(4-methylphenoxy)methyl]pyrrolidin-1-yl}sulfonyl)-3,4-dihydropyrimido[1,2-a]indol-10(2H)-one], the IC50 amounted to 49 nM.
Same read-out and setting: as for `CC1(C)CN=C2C(=O)c3cc(C(=O)NC4CCCC4)ccc3N2C1` [Example 77, N-Cyclopentyl-3,3-dimethyl-10-oxo-2,3,4,10-tetrahydropyrimido[1,2-a]indole-8-carboxamide], the figure is 35000 nM.
The same measure, in the same setting: the figure for `CC(=O)c1ccc(OC[C@@H]2CCCN2S(=O)(=O)c2ccc3c(c2)C(=O)C2=NCC(C)(C)CN23)c(C)c1` [Example 27, 8-({(2S)-2-[(4-Acetyl-2-methylphenoxy)methyl]pyrrolidin-1-yl}sulfonyl)-3,3-dimethyl-3,4-dihydropyrimido[1,2-a]indol-10(2H)-one] is 55 nM; for `CC1(C)CN=C2C(=O)c3cc(NS(=O)(=O)c4ccc(F)c(Cl)c4)ccc3N2C1` [Example 52, 3-Chloro-N-(3,3-dimethyl-10-oxo-2,3,4,10-tetrahydropyrimido[1,2-a]indol-8-yl)-4-fluorobenzenesulfonamide] it is 285 nM; for `CC1(C)CN=C2C(=O)c3cc(NS(=O)(=O)c4cccc(Br)c4)ccc3N2C1` [Example 50, 3-Bromo-N-(3,3-dimethyl-10-oxo-2,3,4,10-tetrahydropyrimido[1,2-a]indol-8-yl)benzenesulfonamide] it is 23.4 nM.
On the same count and under the same terms, the figure for `Cc1ccc(OC[C@@H]2CCCN2S(=O)(=O)c2ccc3c(c2)C(=O)C2=NCC(C)(C)CN23)c(Cl)c1` [Example 26, 8-({(2S)-2-[(2-Chloro-4-methylphenoxy)methyl]pyrrolidin-1-yl}sulfonyl)-3,3-dimethyl-3,4-dihydropyrimido[1,2-a]indol-10(2H)-one] is 98 nM; for `CC1(C)CN=C2C(=O)c3cc(S(=O)(=O)N4c5ccccc5C[C@H]4COc4ccccc4)ccc3N2C1` [Example 34, 3,3-Dimethyl-8-{[(2S)-2-(phenoxymethyl)-2,3-dihydro-1H-indol-1-yl]sulfonyl}-3,4-dihydropyrimido[1,2-a]indol-10(2H)-one] it is 1210 nM; for `CC1(C)CN=C2C(=O)c3cc(NS(=O)(=O)c4cc(C(F)(F)F)cc(C(F)(F)F)c4)ccc3N2C1` [Example 62, N-(3,3-Dimethyl-10-oxo-2,3,4,10-tetrahydropyrimido[1,2-a]indol-8-yl)-3,5-bis(trifluoromethyl)benzenesulfonamide] it is 3140 nM.
Consider `COC[C@@H]1CCCN1S(=O)(=O)c1ccc2c(c1)C(=O)C1=NCC3(CCCCCC3)CN12` [85/86, 8′-{[(2S)-2-(methoxymethyl)pyrrolidin-1-yl]sulfonyl}spiro[cycloheptane-1,3′-pyrimido[1,2-a]indol]-10′(2′H)-one], for which the IC50 was determined as 45 nM.
On the same count and under the same terms, as for `COC[C@@H]1CCCN1S(=O)(=O)c1cc2c(cc1Cl)N1CCCN=C1C2=O` [Example 5, 7-Chloro-8-{[(2S)-2-(methoxymethyl)pyrrolidin-1-yl-]sulfonyl}-3,4-dihydropyrimido[1,2-a]indol-10(2H)-one], the figure is 189 nM; as for `CC1(C)CN=C2C(=O)c3cc(S(=O)(=O)N4CCC[C@H]4COc4cccc(Cl)n4)ccc3N2C1` [Example 40, 8-[((2S)-2-{[(6-Chloropyridin-2-yl)oxy]methyl}pyrrolidin-1-yl)sulfonyl]-3,3-dimethyl-3,4-dihydropyrimido[1,2-a]indol-10(2H)-one], 5 nM.
As to `CC1(C)CN=C2C(=O)c3cc(C(=O)N4CCCCC4)ccc3N2C1` [Example 79, 3,3-Dimethyl-8-(piperidin-1-ylcarbonyl)-3,4-dihydropyrimido[1,2-a]indol-10(2H)-one], the concentration for half-maximal inhibition (IC50) came to 21000 nM.
Take `Cc1ccc(OC[C@@H]2CCCN2S(=O)(=O)c2ccc3c(c2)C(=O)C2=NCC(C)(C)CN23)c(I)n1` [Example 46, 8-[((2S)-2-{[(2-Iodo-6-methylpyridin-3-yl)oxy]methyl}pyrrolidin-1-yl)sulfonyl]-3,3-dimethyl-3,4-dihydropyrimido[1,2-a]indol-10(2H)-one]: the IC50 was found to be 17 nM.
The same measure, in the same setting: the figure for `CC1(C)CN=C2C(=O)c3cc(S(=O)(=O)N4CCC[C@H]4COc4cccnc4Cl)ccc3N2C1` [Example 43, 8-[((2S)-2-{[(2-Chloropyridin-3-yl)oxy]methyl}pyrrolidin-1-yl)sulfonyl]-3,3-dimethyl-3,4-dihydropyrimido[1,2-a]indol-10(2H)-one] is 7 nM.
Same read-out and setting: the figure for `CN1CCN(C[C@@H]2CCCN2S(=O)(=O)c2ccc3c(c2)C(=O)C2=NCC4(CCCC4)CN23)CC1` [Example 84, 8′-({(2S)-2-[(4-Methylpiperazin-1-yl)methyl]pyrrolidin-1-yl}sulfonyl)spiro[cyclopentane-1,3′-pyrimido[1,2-a]indol]-10′(2′H)-one] is 30 nM; for `CC1(C)CN=C2C(=O)c3cc(Cl)ccc3N2C1` [Example 14, 8′-Chloro-3′,3′-dimethyl-3′,4′-dihydropyrimido[1,2-a]indol-10(2H)-one] it is 874 nM.
On the same count and under the same terms, the figure for `CC1(C)CN=C2C(=O)c3cc(S(=O)(=O)N4CCC[C@H]4COc4cccc(C(F)(F)F)c4)ccc3N2C1` [Example 31, 3,3-Dimethyl-8-[((2S)-2-{[3-(trifluoromethyl)phenoxy]methyl}pyrrolidin-1-yl)sulfonyl]-3,4-dihydropyrimido[1,2-a]indol-10(2H)-one] is 45 nM.
